Results published in patent US9066516B2, “Uses of thaxtomin and thaxtomin compositions as herbicides” (priority 2008, dated 2015).

What was measured:
Type in all cases: in vivo
[1] = tested on: Ragweed (Ambrosia artemisifolia); test: Pre-emergence test of MBI-005, lab (Example 12); conditions: pre-emergent; also: ranges in brackets are in %
Protocol: (§1) To further describe the spectrum of pre-emergence activity, tests were conducted in laboratory and field conditions. In laboratory testing, 35 seeds were placed on a ring of blotter paper inside a 3 cm petri dish and supplied with 4 ml of MBI-005 (≦0.1 mg MBI-005/ml). Water was used as a negative control and oryzalin applied as a positive control. Petri dishes were randomly placed in a growth room at 25° C. and 50% RH. Treatments were replicated three times and germinated seeds were counted 7 and 14 days after application; water was added as necessary to maintain moisture levels inside each petri dish.

[2] = tested on: Black nightshade (Solanum nigrum); test: Pre-emergence test of MBI-005, lab (Example 12); conditions: pre-emergent; also: ranges in brackets are in %
Protocol: as §1

[3] = tested on: Bearded Sprangletop (Leptochloa fascicularis); test: Pre-emergence test of MBI-005, lab (Example 12); conditions: pre-emergent; also: ranges in brackets are in %
Protocol: as §1

[4] = tested on: Canarygrass (Phalaris minior); test: Pre-emergence test of MBI-005, lab (Example 12); conditions: pre-emergent; also: ranges in brackets are in %
Protocol: as §1

[5] = tested on: Palmer pigweed (R) (Amaranthus palmerii); test: Pre-emergence test of MBI-005, lab (Example 12); conditions: pre-emergent, herbicide resistant population; also: ranges in brackets are in %
Protocol: as §1

[6] = tested on: Buckhorn plantain (Plantago lanceolata); test: Pre-emergence test of MBI-005, lab (Example 12); conditions: pre-emergent; also: ranges in brackets are in %
Protocol: as §1

[7] = tested on: small-flower umbrella sedge; test: Field study on rice, weed count (Example 6); conditions: Thaxtomin A 180 g/acre, per plot
Protocol: (§2) The efficacy of thaxtomin A derived from a liquid culture of S. acidiscabies is tested in a field study on rice using 4.9 sq-ft plots surrounded by a metal ring. Treatments with either thaxtomin A or thaxtomin A in combination with lemongrass oil (formulated as GreenMatch EX) or cyhalofop (formulated as Clincher CA) were done using a hand-held sprayer with a water volume corresponding to 57 gallons per acre. Rice (variety M209) was grown until maturity and harvested by hand for yield and weed count assessment. Results of yield (kg/ha), and numbers of redstem, small-flower umbrella sedge, and sprangletop in each plot are presented in Table 3 below.

[8] = tested on: redstem; test: Field study on rice, weed count (Example 6); conditions: Thaxtomin A 180 g/acre; per plot
Protocol: as §2

[9] = tested on: sprangletop; test: Field study on rice, weed count (Example 6); conditions: Thaxtomin A 180 g/acre, per plot
Protocol: as §2

[10] = tested on: corn plants (Zea mays var. Sunglow); test: Pot study, phytotoxicity on corn (Example 1); conditions: spray 0.125-1.0 mg thaxtomin A/mL, three weeks after treatment
Protocol: In a pot study test in greenhouse conditions, 6-inch corn plants (Zea mays var. Sunglow) were sprayed with increasing concentrations of thaxtomin A mixed in a carrier 4% ethanol, 0.02% polysorbate 60 POE (20) sorbitan monostearate solution. The spraying solutions contained 0.125, 0.25, 0.5 and 1.0 mg thaxtomin A/mL, and the plants are sprayed until total coverage. Each treatment was done in three replicates, and a control solution consists of water with 4% ethanol and 0.02% polysorbate 60 POE (20) sorbitan monostearate as a surfactant. Prior to and after treatments, plants are grown in a greenhouse under artificial lights (12-h light/dark cycle) at 25° C.
Plants are evaluated in one-week intervals starting at 7 days after treatment.

CN1C(=O)[C@](O)(Cc2cccc(O)c2)N(C)C(=O)[C@@H]1Cc1c[nH]c2cccc([N+](=O)[O-])c12 [thaxtomin A]
Rating at 0.1 mg/ml (Reduction of Germination) [1]: ++++ (95-100) | Rating at 0.1 mg/ml (Reduction of Germination) [2]: ++++ (95-100) | Rating at 0.1 mg/ml (Reduction of Germination) [3]: ++++ (95-100) | Rating at 0.1 mg/ml (Reduction of Germination) [4]: ++++ (95-100) | Rating at 0.1 mg/ml (Reduction of Germination) [5]: +++ (85-94) | Rating at 0.1 mg/ml (Reduction of Germination) [6]: ++++ (95-100) | # of sedge ([7]; listed as Thaxtomin A): 1.0a | # of sedge ([7]; listed as thaxtomin): significantly reduced the number of sedges | # of redstem [8]: 0.5b | # of sprangletop ([9]; listed as Thaxtomin A): 76.0a | # of sprangletop ([9]; listed as thaxtomin): no effect | phytotoxicity [10]: no phytotoxicity is observed
